pIC50: −log10 of the molar value.
Legend:
Lck = Lck (Homo sapiens (Human), UniProt P06239); assay: Lck inhibitory activity, selectivity for Btk (Z'-LYTE kinase assay); format: biochemical; conditions: ratio of the IC50 values of the individual kinases
Experimental: The inhibitory activity for other kinases (for example, Lck, Fyn, and LynA (all from Invitrogen Corporation) was measured in the same manner as described above using the particular kinase in place of the Btk.

[1] = system: T cells (CD3-positive CD20-negative cells) of human PBMC; assay: T cell activation using human PBMC (CD69-positive signal, FACS); format: cell-based; conditions: anti-CD3/CD28 antibody beads, 16 hours
Experimental: Measurement of B Cell Activation or T Cell Activation Using Human PBMC
A 10 mmol/L solution of the test compound in DMSO was dispensed into a 96-well plate (Nunc) and a 5× dilution series was prepared using DMSO. A 100× concentration test compound dilution solution was prepared by an additional 10× dilution with RPMI1640 medium (contained 10% HI-FBS, 1% penicillin). Human peripheral blood mononuclear cells (PBMC) were diluted with the medium to provide a density of 2×10^6 cells/mL. 396 μL of the cell suspension was added to a 96-well plate into which 4 μL of the 100× concentration test compound dilution solution or the solvent (10% DMSO) had already been introduced and incubation was performed for 10 minutes at 37° C. and 5% CO2. 10 μL of an anti-IgM antibody (Southern Biotech)/IL-4 (R & D Systems) solution or an anti-CD3/CD28 antibody bead suspension (Invitrogen Corporation) was added to a 96-well plate and 90 μL of the cell suspension prepared as described above was also added (final concentrations: anti-IgM antibody=1 μg/mL, IL-4=3 ng/mL, and anti-CD3/CD28 antibody beads=2×10^6 beads/mL). 10 μL of the medium was added to the unstimulated sample wells in place of these stimulating substances, and standing at 37° C. and 5% CO2 was again performed. Incubation was carried out for 16 hours in the case of the evaluation of T cell activation and for 22 hours in the case of the evaluation of B cell activation. 100 μL Cytofix Buffer (BD Biosciences) was added; holding for 15 minutes at 37° C. was performed; centrifugation for 10 minutes at 1500 rpm was carried out; and the supernatant was removed. 200 μL of Perm buffer II (BD Biosciences) at −20° C. was added; holding for 30 minutes on ice was performed; centrifugation for 10 minutes at 1500 rpm was carried out; and the supernatant was removed. 0.5 mL Stain buffer (BD Biosciences) was added and centrifugation was carried out for 10 minutes at 1500 rpm. 100 μL of a mixed antibody solution was added and incubation was performed for 30 minutes on ice in the dark. The antibody was the 10× dilution with Stain Buffer of the 1:1:1 mixture of PerCP-labeled anti-CD3 antibody (BD Biosciences), AF488-labeled anti-CD20 antibody (BD Biosciences), and PE-labeled anti-CD69 antibody (BD Biosciences). 0.4 mL Stain Buffer was added and the supernatant was removed. […] The CD69-positive signal (average fluorescence intensity) of the CD20-positive CD3-negative cells (B cells) or CD3-positive CD20-negative cells (T cells) was measured. After subtracting the value for the unstimulated sample, the % inhibition with reference to the value for the stimulated control sample was determined. The % inhibition was graphically plotted using Prism (ver. 5.01 J, GraphPad Software) and the IC50 value was determined.

Human liver cells [2] = assay: Ability to reduce the mitochondrial membrane potential in cultured human hepatoma cells (JC-1); format: cell-based; conditions: JC-1, exposure for 24 hours, read-out: Ability to lower the mitochondrial membrane potential (IC50 (μM))
Description: (§1) Measurement of the Cytotoxicity and Ability to Reduce the Mitochondrial Membrane Potential in Cultured Human Hepatoma Cells
Tissue that maintains an aerobic equilibrium, e.g., the kidneys and heart, and tissue that is exposed to high drug concentrations and carries out drug metabolism, e.g., the liver, are known to be sensitive to mitochondrial dysfunction (Drug Discovery Today, 12 (17-18), 777-785, 2007). The reduction or extinction of the mitochondrial membrane potential by a drug is caused by the direct inhibition of the electron transport system, decoupling of electron transport from ATP synthase, or the opening of a mitochondrial membrane permeability transition pore. As a consequence, measurement of the mitochondrial membrane potential of liver cells can provide a parameter for hepatotoxicity.
(§2) Human liver cells were seeded into a collagen-coated 96-well plate at a cell density of 30,000 cells/well and incubation was carried out overnight in an incubator at 37° C. in 5% CO2-95% air. The cultured cells were stained for 1 hour with 5,5′,6,6′-tetrahydro-1,1′,3,3′-tetramethyl-benzamidazolocarbocyanine iodide (JC-1) followed by treatment with the test compound. The test compound was dissolved in DMSO and then diluted with the liquid culture medium Hepatocyte Culture Medium (HCM) and added to the cells. The test compound treatment concentrations were 0, 6.25, 12.5, 25, 50, 100, 200, and 400 μmol/L. After exposure to the test compound for 24 hours, measurement was performed with a SpectraMax plate reader (Molecular Devices, LLC) at an excitation wavelength of 485 nm and a fluorescence wavelength of 538 nm and an excitation wavelength of 544 nm and a fluorescence wavelength of 590 nm. The membrane potential was determined by the ratio between the 544 nm/590 nm measurement value and the 485 nm/538 nm measurement value. After this, the ATP concentration in the cells was measured using a Celltiter Glo luminescent assay kit (Promega Corporation) in order to evaluate the cell toxicity of the test compound. The cells were lysed by the assay buffer provided with the measurement kit and the concentration of the ATP released from the cells was measured using the luciferin-luciferase enzyme activity as the index. The emission was measured using a SpectraMax plate reader. […] The ability to lower the mitochondrial membrane potential of the test compounds and the cytotoxicity of the test compounds are given in Table 3 below.

Human liver cells [3] = assay: Cytotoxicity in cultured human hepatoma cells (ATP concentration, Celltiter Glo); format: cell-based; conditions: 50% decline in ATP concentration, exposure for 24 hours, read-out: Toxicity for human liver cells (IC50 (μM))
Experimental: as §1, §2

[4] = Stability in the rat liver microsome; conditions: 0.5 mg/mL microsomes, NADPH, 15 minutes at 37° C.
Experimental: Evaluation of the Stability in the Rat and Human Liver Microsome
A 0.25 mmol/L solution was prepared by diluting the test compound (10 mmol/L DMSO solution, 5 μL) with an aqueous 50% acetonitrile solution (195 μL).
20 μL was collected immediately after the start and the reaction was stopped by the addition to 180 μL of acetonitrile that contained an internal standard (warfarin). 20 μL of this solution was stirred with 180 μL of an aqueous 50% acetonitrile solution on a filter plate for protein depletion followed by suction filtration, and the filtrate was used as the standard sample.
The previously indicated reaction solution was incubated for 15 minutes at 37° C., and 20 μL was then added to 180 μL cold acetonitrile (contained the internal standard warfarin) to stop the reaction. 20 μL of this was stirred with 180 μL of an aqueous 50% acetonitrile solution on a filter plate for protein depletion followed by suction filtration, and the filtrate was used as the standard sample.

Lck, sequence (P06239 whole entry): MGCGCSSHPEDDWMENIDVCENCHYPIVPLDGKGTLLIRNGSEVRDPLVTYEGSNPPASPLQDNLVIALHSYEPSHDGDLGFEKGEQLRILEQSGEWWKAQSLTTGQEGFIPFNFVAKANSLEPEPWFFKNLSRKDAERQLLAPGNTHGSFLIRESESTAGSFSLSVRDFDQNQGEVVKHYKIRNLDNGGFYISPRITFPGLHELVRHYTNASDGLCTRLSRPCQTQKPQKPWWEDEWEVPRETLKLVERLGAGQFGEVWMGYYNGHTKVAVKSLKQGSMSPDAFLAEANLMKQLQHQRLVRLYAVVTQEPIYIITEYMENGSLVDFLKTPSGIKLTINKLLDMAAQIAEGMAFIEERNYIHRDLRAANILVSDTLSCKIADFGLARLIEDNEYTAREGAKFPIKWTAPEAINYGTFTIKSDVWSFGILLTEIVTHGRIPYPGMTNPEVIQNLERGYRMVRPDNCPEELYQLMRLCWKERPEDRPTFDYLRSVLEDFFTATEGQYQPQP

- Lck[IC50]/Btk[IC50] (Lck): 80
- IC50 (Human liver cells [2]): 324 µM
- Residual ratio (%) in the rat liver microsome [4]: 100%
Structure (SMILES): C=CC(=O)N1CC(n2c(=O)n(-c3ccc(Oc4ccccc4)cc3)c3c(N)ncnc32)C1 [Example 8, 9-(1-acryloyl-3-azetidinyl)-6-amino-7-(4-phenoxyphenyl)-7,9-dihydro-8H-purin-8-one]
- pIC50 [1]: < 5.00
- IC50 (Human liver cells [3]): 290 µM

— US9879013B2, “Purinone derivative” (ONO PHARMACEUTICAL CO., LTD., priority 2010, dated 2018)
